Values after ≈ are worked out from the molar mass of the structure shown. Values joined by “and” are separate entries in the source; they are usually repeats but may differ in a detail not shown here. Equal values may be shown once.
Experiments:
Caco-2 cells = assay: MTT anticancer assay; type: cell-based; conditions: for IC50: Homo sapiens, Caco-2, colon carcinoma cells, MTT, 48 h; for SI Caco-2: IC50 Wi-38 / IC50 Caco-2
Text: (§1) MTT assay: the normal cell line (Wi-38), colon cancer (Caco-2), lung cancer (A549), and breast cancer (MDA) cell lines were sourced from ATCC, USA. All different cell lines were cultivated and preserved in DMEM medium (SERANA, Germany), accompanied by 10% FBS (Gibco, USA) and 1% Pen/Strep solution (Lonza, USA). The newly prepared derivatives at various doses were considered for their anticancer activity and their safety on normal cells, applying MTT (3-[4, 5-dimethylthiazol]-2, 5-diphenyltetrazolium bromide) methods.[22] At first, all normal and cancer cell lines (1.0 ×10^4) were inoculated in 4 antiseptic 96-well tissue culture microplates and incubated for 24 h in a CO2 incubator. After cell attachments, the prepared derivatives were added to both normal Wi-38 cells at diverse concentrations of (6.25–200 μg mL^−1, 2-fold) and cancer cells at different concentrations of (3.125–100 μg mL^−1, 2-fold) in triplicate and incubated for another 48 h at 37 °C in a CO2 incubator with an adjusted concentration of 5%. After that, the treated cells were cleaned three times with PBS to remove debris and dead cells. Next, 200 μL of 0.5 mg mL^−1 MTT dye solution in PBS was mixed in each well, and the cells were further kept for 3 h at 37 °C in a 5% CO2 incubator. After that, MTT was removed and 200 μL of DMSO was added to each well. The optical density (OD) was recorded at 570 nm via a microplate reader (B.M.G. LabTech, Germany). Basic cells (untreated) were utilized as negative control cells, and 5-fluorouracil (5-FU) was included as a standard chemotherapy drug. The qualified cell viability (%) was evaluated as in equation (eqn (1)):1 Relative cell viability (%) = […] A1 is the OD of the examined derivative, A0 is the OD of the standard, and AU is the OD of the untreated cells.
(§2) Anticancer activity assay: the anticancer effect of each derivative was assessed by evaluating the half-maximal inhibitory concentration (IC50) value via the GraphPad Prism 7.0 software. However, SI (selective index) values of each derivative were estimated by splitting the IC50 value of healthy cells by the IC50 value of malignant cells, as previously reported.[23] The effects of the created derivatives on the morphology of MDA cells were evaluated at IC50 doses and captured by phase-contrast microscopy (Olympus, Germany) in comparison to untreated control cells.

Wi-38 cells = assay: MTT cytotoxicity assay, normal cells; type: cell-based; conditions: WI-38, normal human lung fibroblast cells, 48 h
Text: as §1, §2

K. pneumonia = assay: Agar-well diffusion of synthesized compounds; type: cell-based, Klebsiella pneumonia ATCC 13883; conditions: Klebsiella pneumoniae, 100 μL of 10 mg mL^−1 per well, 24 h, 37 °C
Text: (§3) The antimicrobial activity of the prepared compounds was estimated through an agar-well diffusion method as adapted from the modified Kirby–Bauer protocol.[24] In this test, microbial pathogens were applied, including Staphylococcus aureus ATCC 25923 (S. aureus), Streptococcus mutans ATCC 25175 (S. mutans), Bacillus cereus ATCC 19637 (B. cereus), Bacillus aureus ATCC 25923 (B. aureus), Bacillus epidermidis ATCC 14990 (B. epidermidis), and Bacillus subtilis ATCC 11774 (B. subtilis) as Gram-positive bacteria, and Pseudomonas aeruginosa ATCC 27853 (P. aeruginosa), Klebsiella pneumonia ATCC 13883 (K. pneumonia), and Salmonella typhimurium ATCC 14028 (S. typhimurium), Salmonella pneumoniae ATCC 10031(S. pneumoniae), Escherichia coli ATCC 10536 (E. coli), and Salmonella paratyphi ATCC 9150 (S. paratyphi) as Gram-negative bacteria. Additionally, Candida albicans (ATCC 10231), Candida krusei ATCC 6258 (C. krusei), Candida glabrata ATCC 66032 (C. glabrata), andCandida parapsilosis ATCC 22019 (C. parapsilosis) were applied as models of unicellular fungi. The pre-inoculation cultures of the pathogens were prepared on Muller–Hinton broth and cultivated for 24 h at 37 °C. The agar-well test was prepared on Muller–Hinton agar with 100 μL of each pathogen pre-culture (0.5 McFarland conc.) and uniformly distributed on the plate surface. […]

A549 cells [1] = assay: MTT anticancer assay; type: cell-based, human; conditions: Homo sapiens, A549, lung carcinoma cells, 48 h
Text: as §1, §2

MDA cells = assay: MTT anticancer assay; type: cell-based, human; conditions: Homo sapiens, Breast carcinoma cell, 48 h
Text: as §1, §2

all applied pathogens = assay: Agar-well diffusion of synthesized compounds, whole panel; type: cell-based
Text: (§4) The antimicrobial activity of the prepared compounds was estimated through an agar-well diffusion method as adapted from the modified Kirby–Bauer protocol.[24] In this test, microbial pathogens were applied, including Staphylococcus aureus ATCC 25923 (S. aureus), Streptococcus mutans ATCC 25175 (S. mutans), Bacillus cereus ATCC 19637 (B. cereus), Bacillus aureus ATCC 25923 (B. aureus), Bacillus epidermidis ATCC 14990 (B. epidermidis), and Bacillus subtilis ATCC 11774 (B. subtilis) as Gram-positive bacteria, and Pseudomonas aeruginosa ATCC 27853 (P. aeruginosa), Klebsiella pneumonia ATCC 13883 (K. pneumonia), and Salmonella typhimurium ATCC 14028 (S. typhimurium), Salmonella pneumoniae ATCC 10031(S. pneumoniae), Escherichia coli ATCC 10536 (E. coli), and Salmonella paratyphi ATCC 9150 (S. paratyphi) as Gram-negative bacteria. Additionally, Candida albicans (ATCC 10231), Candida krusei ATCC 6258 (C. krusei), Candida glabrata ATCC 66032 (C. glabrata), andCandida parapsilosis ATCC 22019 (C. parapsilosis) were applied as models of unicellular fungi. The pre-inoculation cultures of the pathogens were prepared on Muller–Hinton broth and cultivated for 24 h at 37 °C. The agar-well test was prepared on Muller–Hinton agar with 100 μL of each pathogen pre-culture (0.5 McFarland conc.) and uniformly distributed on the plate surface. Under aseptic conditions, six wells were created on the agar surface using a sterile corkborer (9 mm). To each well, 100 μL of the prepared compound (10 mg mL^−1) was separately inserted into each plate. All plates were incubated for 24 h at 37 °C; the established inhibition zones (Halo-zones) surrounding the wells indicated positive antimicrobial activity and were stated as the radius of the inhibition zone (mm).

P. aeruginosa = assay: Agar-well diffusion of synthesized compounds; type: cell-based, Pseudomonas aeruginosa ATCC 27853; conditions: Pseudomonas aeruginosa, 100 μL of 10 mg mL^−1 per well, 24 h, 37 °C
Text: as §3

S. mutans = assay: Agar-well diffusion of synthesized compounds; type: cell-based, Streptococcus mutans ATCC 25175; conditions: Streptococcus mutans, 100 μL of 10 mg mL^−1 per well, 24 h, 37 °C
Text: as §4

A549 cells [2] = assay: Wound healing scratch (anti-migration) assay; type: cell-based, human; conditions: IC50 doses, 48 h
Description: To assess the anti-migration inhibition capability of newly synthesized derivatives, a wound healing technique was employed. A549 cells were planted in 12-well plates and kept alive at 37 °C until they achieved 80–90% fluency. The cell monolayers were smashed with a sterile tip and exposed to the prepared derivatives at IC50 doses. At 0 and 48 h of treatment, the wound closure area was captured and calculated by imaging analysis with the Cell-Sens software (Olympus, Japan).

S. aureus = assay: Agar-well diffusion of synthesized compounds; type: cell-based, Staphylococcus aureus ATCC 25923; conditions: Staphylococcus aureus, 100 μL of 10 mg mL^−1 per well, 24 h, 37 °C
Text: as §3

S. typhimurium = assay: Agar-well diffusion of synthesized compounds; type: cell-based, Salmonella typhimurium ATCC 14028; conditions: Salmonella enterica, 100 μL of 10 mg mL^−1 per well, 24 h, 37 °C
Text: as §3

SMILES	IC50 (Caco-2 cells) [µg/mL]	SI Caco-2 (Caco-2 cells)	IC50 (Wi-38 cells) [µg/mL]	zone of inhibition at 10 mg/mL (K. pneumonia) [mm]	IC50 (A549 cells [1]) [µg/mL]	IC50 (MDA cells) [µg/mL]	Antimicrobial activity (all applied pathogens)	zone of inhibition at 10 mg/mL (P. aeruginosa) [mm]	zone of inhibition at 10 mg/mL (S. mutans) [mm]	Migration inhibition (A549 cells [2])	zone of inhibition at 10 mg/mL (S. aureus) [mm]	zone of inhibition at 10 mg/mL (S. typhimurium) [mm]
O=C(Nc1ccc(Nc2ccnc3cc(Cl)ccc23)cc1)c1cc2ccccc2oc1=O [Compound A, N-(4-((7-chloroquinolin-4-yl)amino)phenyl)-2-oxo-2H-chromene-3-carboxamide]	9.03 ± 1.53 (≈ 20.4 µM)	15.38 ± 1.33	139 ± 12 (≈ 314 µM)	~14	11.5 ± 1.75 (≈ 26 µM)	5.46 ± 0.27 (≈ 12.4 µM)	wide-spectrum antibacterial activity	~14	~14			
Cc1ccc(-c2nnc(Nc3ccc(NC(=O)c4cc5ccccc5oc4=O)cc3)c3ccccc23)cc1 [Compound C, 2-oxo-N-(4-((4-(p-tolyl)phthalazin-1-yl)amino)phenyl)-2H-chromene-3-carboxamide]	7.11 ± 1.68 (≈ 14.3 µM)	19.25 ± 1.36	137 ± 11.7 (≈ 275 µM)		12.2 ± 1.36 (≈ 24.4 µM)	6.06 ± 0.81 (≈ 12.2 µM)	wide-spectrum antibacterial activity		~17.2	74.45% and 79.09%	~19.5	~15.5

Source: publication PMC12495412, “Coumarin/nitrogen-bearing heterocyclic hybrid-loaded electrospun PMMA/PVP nanofibrous scaffolds for accelerating topical wound healing rates: synthesis and in vitro bio-evaluation” (RSC Advances, 2025)
